Where a name gives a salt, the structure may show the parent alone.
Test system: HEP3B cells
Assay: Erythropoietin production by HEP3B cells with reduced erythropoietin production ability (ELISA of culture supernatant)
Format: cell-based, human
Settings: 1% oxygen, 24 h
Text: Erythropoietin production ability of erythropoietin producer cells were reduced by culturing the erythropoietin producer cells under hypoxic condition to allow artificial production of erythropoietin, and then adding inflammatory cytokine or uremia toxin.
TNF-α was employed as the inflammatory cytokine. In addition, indoxyl sulfate was employed as the uremic toxin. Indoxyl sulfate is thought to be the causative substance of uremic toxin, and is also the most commonly used uremia-related marker. Indoxyl sulfate in vivo is also a substance where tryptophan-derived indoles are sulfated and synthesized in the liver. Accordingly, a state of reduced erythropoietin production by addition of inflammatory cytokine or uremic toxin is a state of mimicked renal anemia.
In this Example, HEP3B cells which are liver cancer cells that produce erythropoietin of Groups I to VI with different culture conditions (from ATCC) were used. First, as a culturing step common to all 6 groups, about 300,000 HEP3B cells per well of a 12-well plate were cultured. The culture condition employed was culturing in RPMI1640 medium supplemented with 10% FCS/PC-SM at 37° C. under 20% oxygen condition. After 24 hours of culture, they were divided into the following culture conditions I to VI, and further cultured for 24 hours. Human recombinant TNF-a (rhTNF-a; Roche) was employed as TNF-α in the following.
After culturing for 24 hours under the above culture conditions I to VI, the culture supernatant was separated, and the concentration of erythropoietin contained in the culture supernatant was measured with “Human Erythropoietin ELISA kit” (from Bender MedSystems).

Compound: Cl.NCC(=O)CCC(=O)O [aminolevulinic acid hydrochloride, 5-aminolevulinic acid hydrochloride]
- erythropoietin concentration in culture supernatant, Group (VI) vs Group (V) (1 mM indoxyl sulfate, 0.3 μM 5-aminolevulinic acid hydrochloride with 0.15 μM sodium ferrous citrate): significantly high erythropoietin concentration value compared to Group (V)
- erythropoietin concentration in culture supernatant, Group (IV) vs Group (III) (220 U/ml TNF-α, 0.3 μM 5-aminolevulinic acid hydrochloride with 0.15 μM sodium ferrous citrate): significantly high erythropoietin concentration value compared to Group (III)

Compound: O=S(=O)(O)Oc1c[nH]c2ccccc12 [indoxyl sulfate]
- erythropoietin concentration in culture supernatant, Group (V) vs Group (I) (1 mM indoxyl sulfate): decrease in the concentration of erythropoietin was observed

Compound: TNF-α
- erythropoietin concentration in culture supernatant, Group (III) vs Group (I) (220 U/ml TNF-α): decrease in the concentration of erythropoietin was observed

From US9469598B2, “Erythropoietin production-promoting agent” (SBI Pharmaceuticals Co., Ltd., priority 2011, dated 2016)
